# Results from ChEMBL document CHEMBL3430912, “GSK Tres Cantos Anti-Kinetoplastid Screening (TCAKS) Data”.
# Experiments:
# [1] = system: Trypanosoma brucei brucei; assay: GSK_TCAKS: pIC50 Trypanosoma brucei viability assay using fluorescence intensity. Assay plates (1536-well) were prepared by dispensing 25nL of compound solution per well using an Echo acoustic dispenser (Labcyte).; type: functional, organism-based; conditions: Lister 427, 2 h
# NIH3T3 = assay: GSK_TCAKS: pIC50 NIH 3T3 cell line viability assay using luminiscence. Tissue culture surface treated assay plates (1536-well) were used. […] The 100% cells survival control was determined exposing the host-cells to a 0.5% DMSO concentration, whereas the 100% toxicity control was achieved by seeding the cells in presence of Amphotericin B at 50uM. Plates were incubated for four days at 37C, 5% CO2. The assay readout was developed by addition of 5uL of CellTiter-Glo Reagent following the manufacturer's instructions. Luminiscence was measured using a ViewLux.; type: functional, cell-based; conditions: Mus musculus, NIH3T3, 96 h
# [2] = target: Sterol 14-alpha demethylase (Trypanosoma cruzi (strain CL Brener), UniProt Q7Z1V1); assay: GSK_TCAKS: pIC50 CYP51 from Trypanosoma cruzi.; type: functional
# Sequence of Sterol 14-alpha demethylase (Q7Z1V1 whole entry): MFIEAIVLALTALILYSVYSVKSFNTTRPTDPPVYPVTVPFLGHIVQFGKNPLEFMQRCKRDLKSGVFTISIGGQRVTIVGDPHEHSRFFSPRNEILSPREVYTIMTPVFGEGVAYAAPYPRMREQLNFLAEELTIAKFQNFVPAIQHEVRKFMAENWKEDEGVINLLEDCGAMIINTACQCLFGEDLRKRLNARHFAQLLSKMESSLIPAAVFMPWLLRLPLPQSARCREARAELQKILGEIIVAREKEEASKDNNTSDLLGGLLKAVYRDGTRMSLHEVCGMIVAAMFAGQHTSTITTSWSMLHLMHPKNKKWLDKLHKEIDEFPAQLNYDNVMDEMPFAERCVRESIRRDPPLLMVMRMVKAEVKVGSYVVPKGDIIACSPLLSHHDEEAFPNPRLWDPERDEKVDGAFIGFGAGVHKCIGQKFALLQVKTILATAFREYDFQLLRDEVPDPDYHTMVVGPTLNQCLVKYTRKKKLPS
# Leishmania donovani [3] = assay: (§1) GSK_TCAKS: pIC50 Leishmania donovani Imaging: THP-1 Host Macrophages. Assay plates (384-well) were prepared by adding 250nL of compound to each well. For single shot assay, the final compound concentration was 5 uM. […] Automated image analysis was performed with a script developed on Acapella High Content Imaging and Analysis Software (PerkinElmer). Output: THP-1 cell count were reported for each well.; type: functional, organism-based, Homo sapiens
# [4] = GSK_TCAKS: pIC50 HepG2 human cell line viability assay using luminiscence. […] Seeding density was checked to ensure that new mono-layers were not more than 50% confluent at the time of harvesting. Cell suspension was added to 500 mL of the same medium at a final density of 1.2 * 10^5 cells/mL. This cell suspension was dispensed (25 uL, 3000 cells per well) into 384-well clear-bottom plates using a Multidrop Combi dispenser. Prior to addition of the cell suspension, the screening compounds (250 nL) were pre-dispensed into the plates with an Echo liquid handler. Plates were incubated for 48 h at 37C, 5% CO2. After incubation, plates equilibrated at room temperature for 30 min before proceeding to develop the luminescent signal. The signal developer, CellTiter-Glo Reagent, was allowed to equilibrate at room temperature for 30 min and added to the plates (25uL per well) using a Multidrop Combi dispenser. Plates were left for 10 min at room temperature for stabilization and then read using a ViewLux.; type: toxicity, cell-based
# Trypanosoma cruzi [5] = assay: (§2) GSK_TCAKS: pIC50 Trypanosoma cruzi Imaging: Infected Cells. […] Cells were then washed once with PBS before infection. T. cruzi trypomastigotes, collected at days 5 to 8 after infection from LLC-MK2 parasite infected cultures, were allowed to swim out for 4h at 37C from a centrifuged pellet (2,500 rpm/10 min/room temperature). Trypomastigotes were then collected and counted in a CASY Cell Counter. Trypomastigotes, in supplemented DMEM, were added to H9c2 cultures in a multiplicity of infection of 1 and incubated for 18 h. Cells were washed once with PBS before incubation of the infected H9c2 monolayer with trypsin (Life-Technologies) to detach cells from the flask. Cells were counted in a CASY Cell Counter using a 150 um capillary and their density set at 5 * 10^4 cells per mL in supplemented assay DMEM. Infected H9c2 were dispensed into 384-well poly-lysine coated assay plates at 50uL per well using a Multidrop Combi dispenser. After seeding them, the plates were incubated at 37C, 5% CO2 for 72h. Cultures were then fixed and stained by addition of 50 uL of a solution containing 8% formaldehyde and 4 uM DRAQ5 DNA dye (BioStatus, UK) per well. […] Five images were collected per well for reliable statistical analysis. Automated image analysis was performed with a script developed on Acapella High Content Imaging and Analysis Software (PerkinElmer). Output: percentage of infected cells per well as a second infection marker.; type: functional, organism-based, Rattus norvegicus; conditions: H9c2, 4 h
# Leishmania donovani [6] = assay: GSK_TCAKS: pIC50 Leishmania donovani viability assay using fluorescence intensity. Assay plates (1536-well) were prepared by adding 30nL per well of compound. For single shot assay, the final compound concentration was 5uM. […] Briefly, eGFP LdBOB axenic amastigotes were harvested, fixed and counted in a CASY cell counter (Roche-Applied Science). A final concentration of 1.5 * 10^5 cells per well were prepared in amastigote media containing 500 U/mL penicillin/streptomycin (Invitrogen) and 6uL was dispensed to each experimental well using a Multidrop Combi dispenser (Thermo Scientific). 6uL of assay media was dispensed to control columns used as reference for 100% compound response. Following incubation for 72 h at 37C, 5% CO2, 2 uL of resazurin was added to each well at a final concentration of 0.5 mM in phosphate buffered saline (PBS) with IGEPAL (Sigma-Aldrich), 0.05% (v/v).; type: functional, organism-based
# Trypanosoma cruzi [7] = assay: GSK_TCAKS: pIC50 Trypanosoma cruzi Imaging: Amastigotes/Cell. […] Cells were then washed once with PBS before infection. T. cruzi trypomastigotes, collected at days 5 to 8 after infection from LLC-MK2 parasite infected cultures, were allowed to swim out for 4h at 37C from a centrifuged pellet (2,500 rpm/10 min/room temperature). Trypomastigotes were then collected and counted in a CASY Cell Counter. Trypomastigotes, in supplemented DMEM, were added to H9c2 cultures in a multiplicity of infection of 1 and incubated for 18 h. Cells were washed once with PBS before incubation of the infected H9c2 monolayer with trypsin (Life-Technologies) to detach cells from the flask. Cells were counted in a CASY Cell Counter using a 150 um capillary and their density set at 5 * 10^4 cells per mL in supplemented assay DMEM. Infected H9c2 were dispensed into 384-well poly-lysine coated assay plates at 50uL per well using a Multidrop Combi dispenser. After seeding them, the plates were incubated at 37C, 5% CO2 for 72h. Cultures were then fixed and stained by addition of 50 uL of a solution containing 8% formaldehyde and 4 uM DRAQ5 DNA dye (BioStatus, UK) per well. […] Five images were collected per well for reliable statistical analysis. Automated image analysis was performed with a script developed on Acapella High Content Imaging and Analysis Software (PerkinElmer). Output: number of amastigotes per cell as infection level measurement.; type: functional, organism-based, Rattus norvegicus; conditions: H9c2, 4 h
# [8] = system: Trypanosoma brucei brucei; assay: GSK_TCAKS: pIC50 Trypanosoma brucei viability assay using luminiscence. Assay plates (1536-well) were prepared. T. brucei cultures were harvested and counted in a CASY cell counter. A parasite suspension was prepared at a final concentration of 5 * 10^4 cells/mL in complete HMI9 medium and 6uL was dispensed to all wells containing compounds using a Multidrop Combi dispenser. 6uL of HMI9 media with 0.4% DMSO were dispensed to control columns. Plates were incubated for 24 h at 37C, 5% CO2 then tempered for 10 min at room temperature. ATP content was quantified by adding 4 uL of CellTiter-Glo Reagent (Promega) according to the manufacturer's instructions. Luminescence was measured using a ViewLux.; type: functional, organism-based; conditions: Lister 427, CASY
# Leishmania donovani [9] = assay: as §1, with “Infected” for “THP-1 Host”, “Percent of infected macrophage cells” for “THP-1 cell count”; type: functional, organism-based, Homo sapiens; conditions: THP-1
# Leishmania donovani [10] = assay: as §1, with “Amastigotes/Macrophages.” for “THP-1 Host Macrophages.”, “Average number of amastigotes per macrophage” for “THP-1”, “cell” for “cell count”; type: functional, organism-based, Homo sapiens; conditions: THP-1
# Trypanosoma cruzi [11] = assay: as §2, with “H2C9” for “Trypanosoma cruzi”, “H9c2 Host Cardiomyocytes.” for “Infected Cells.”, “Number” for “percentage”, “H9c2 Host Cardiomyocytes nuclei to determine drug-related cytotoxicity.” for “infected cells per well as a second infection marker.”; type: functional, organism-based, Rattus norvegicus; conditions: H9c2, 4 h
# Trypanosoma cruzi [12] = assay: GSK_TCAKS: pIC50 Trypanosoma cruzi viability assay using beta-GAL activity. This assay was run at single shot at 5uM compound concentration per well. The biological reagents consisted of NIH-3T3 host cells and trypomastigotes parasitic cells; both cell types were set to a 3.3 * 10^5 cells/mL dilution in assay DMEM by means of a CASY cell counter device using a 60um capillary. 6 uL of the mixture were dispensed per well (about 1 * 10^3 host-cells and 1 * 10^3 parasites) with a Multidrop Combi dispenser. […] In all wells, the percentage of DMSO never exceeded 0.5%. Plates incubated for four days at 37C, 5% CO2. The substrate used for the assay fluorescence intensity (FLINT) readout was resorufin-beta-D-galactopiranoside (Sigma-Aldrich) at 5uM per well. It was diluted in PBS supplemented with the soft detergent Igepal (Fluka).; type: functional, organism-based, Mus musculus; conditions: Tulahuen, NIH3T3
SMILES,IC50 [1],IC50 (NIH3T3),IC50 [2],IC50 (Leishmania donovani [3]),IC50 at 48 h [4],IC50 (Trypanosoma cruzi [5]),IC50 (Leishmania donovani [6]),IC50 (Trypanosoma cruzi [7]),IC50 [8],IC50 (Leishmania donovani [9]),IC50 (Leishmania donovani [10]),IC50 (Trypanosoma cruzi [11]),IC50 (Trypanosoma cruzi [12])
Cc1ccc(CNC2CCN(C[C@@H]3Cn4c(=O)ccc5ccc(=O)n3c54)CC2)cc1F,1.58 µM,15.8 µM,> 100 µM,> 50.1 µM,> 100 µM,1.26 µM,> 50.1 µM,1 µM,2 µM,> 50.1 µM,> 50.1 µM,> 50.1 µM,1.26 µM
CC(=O)Nc1ccc(-c2noc(CC3CCCN(Cc4cccc(F)c4C)C3)n2)cc1 (stereo not given),20 µM,25.1 µM,> 100 µM,> 50.1 µM,> 100 µM,2 µM,39.8 µM,1.26 µM,25.1 µM,31.6 µM,12.6 µM,31.6 µM,1 µM
N#Cc1ccc(S(=O)(=O)N2CCC3(CCN(c4ccccc4)C3=O)CC2)cc1,> 39.8 µM,> 50.1 µM,> 100 µM,> 50.1 µM,> 100 µM,1 µM,> 50.1 µM,0.631 µM,> 39.8 µM,> 50.1 µM,> 50.1 µM,> 50.1 µM,1.26 µM
Cc1cccc(NS(=O)(=O)c2cnc3sc(C)cn3c2=O)c1,> 39.8 µM,> 50.1 µM,> 100 µM,> 50.1 µM,> 100 µM,2 µM,> 50.1 µM,1 µM,> 39.8 µM,> 50.1 µM,5.01 µM,6.31 µM,1.26 µM
O=C(N1CCc2ccccc2CC1)C1(C(=O)N2CCC(n3c(=O)[nH]c4ncccc43)CC2)CC1,> 39.8 µM,39.8 µM,0.316 µM,> 50.1 µM,> 100 µM,0.794 µM,> 50.1 µM,0.631 µM,> 39.8 µM,> 50.1 µM,> 50.1 µM,> 50.1 µM,0.631 µM
COc1ccc2ncc(=O)n(CCN3CCOC(CNCc4ccc(C(F)(F)F)cc4F)C3)c2n1 (stereo not given),0.631 µM,3.98 µM,10 µM,> 50.1 µM,> 100 µM,1.58 µM,39.8 µM,0.631 µM,2.51 µM,> 50.1 µM,> 50.1 µM,> 50.1 µM,0.398 µM
CS(=O)(=O)c1cccc(CNC(=O)c2cncc(N3CCN(c4ccc(F)cc4)CC3)c2)c1,31.6 µM,25.1 µM,12.6 µM,> 50.1 µM,> 100 µM,0.398 µM,> 50.1 µM,0.251 µM,> 39.8 µM,> 50.1 µM,> 50.1 µM,> 50.1 µM,0.631 µM
O[C@H]1CC[C@H](Nc2nccc(-c3sc(C4CCOCC4)nc3-c3ccc(F)c(F)c3)n2)CC1,2 µM,39.8 µM,> 100 µM,20 µM,25.1 µM,0.316 µM,3.16 µM,0.2 µM,3.98 µM,5.01 µM,2.51 µM,31.6 µM,0.316 µM
O=c1oc2ccccc2n1C1CCN(Cc2ccccc2-c2cccnc2)CC1,39.8 µM,15.8 µM,0.1 µM,12.6 µM,> 100 µM,0.316 µM,> 50.1 µM,0.398 µM,> 39.8 µM,> 50.1 µM,6.31 µM,> 50.1 µM,0.501 µM
Cc1c(C(C)NC(=O)Nc2cccc(Cl)c2)sc2ncnn12 (stereo not given),20 µM,> 50.1 µM,0.126 µM,> 50.1 µM,> 100 µM,0.2 µM,2 µM,0.158 µM,> 39.8 µM,> 50.1 µM,2 µM,> 50.1 µM,0.141 µM
